# From patent publication US7915245B2, “Methods and compositions of trail-death receptor agonists/activators” (The Board of Regents of the University of Texas System, priority 2007, dated 2011)
# Key:
# normal human hepatocytes = test: XTT cell viability, normal hepatocytes; format: cell-based; conditions: 0, 1, 3, 5 and 10 μM, 72 h
# Procedure: FIGS. 59 A, B & C. DRAs has no effect on cell viability of normal human hepatocytes. Normal human hepatocytes were incubated with various concentrations of DRA11 (0, 1, 3, 5 and 10 μM) (FIG. 59A), DRA9S (0, 1, 3, 5 and 10 μM) (FIG. 59B), and DRA9 (0, 1, 3, 5 and 10 μM) (FIG. 59C) for 72 h. At the end of incubation period, cell viability was measured by XTT assay.
# (§1) XTT Assay. Cells (1×10^4 cells per well) were seeded in 96-well plates (flat bottom), and treated with death receptor agonists/activators/small molecules in the presence or absence of TNF-related apoptosis inducing ligand (TRAIL). Plates were incubated for various time points at 37° C. and 5% CO2. Before the end of the experiment, 50 μl XTT (sodium 3′[1-(phenylaminocarbonyl)-3,4-tetrazolium]-bis(4-methoxy-6-nitro) benzene sulfonic acid hydrate) labeling mixture (final concentration, 125 μM sodium XTT and 25 μM PMS) per well was added and plates were incubated for a further 4 h at 37° C. and 5% CO2. The spectrophotometric absorbance of the sample was measured using a microtitre plate (ELISA) reader. The wavelength to measure absorbance of the formazan product was 450 nm, and the reference wavelength was 650 nm.
# [1] = test system: breast cancer MDA-MB-231 cell line; test: XTT cell viability with signaling inhibitor pretreatment, MDA-MB-231; format: cell-based, human; conditions: then DRA 72 h; for effect of Akt inhibitor on the inhibitory effect on cell viability: Akt inhibitor 0.5 μM 4 h pretreatment; for effect of PI-3 kinase inhibitor LY294002 on the inhibitory effect on cell viability: LY294002 2.5 μM 4 h pretreatment; for effect of NFκB inhibitor MG132 on the inhibitory effect on cell viability: MG132 2.5 μM 4 h pretreatment
# Procedure: FIG. 39. […] MDA-MB-231 cells were pretreated with NFκB inhibitor MG132 (2.5 μM) for 4 h followed by treatment with various concentrations of DRA11, DRA9, and DRA9S for 72 h. At the end of incubation, cell viability was measured by XTT assay. Data represent the mean±S.D.
# FIG. 40. […] MDA-MB-231 cells were pretreated with LY294002 (2.5 μM) for 4 h followed by treatment with various concentrations of DRA11, DRA9, and DRA9S for 72 h. At the end of incubation, cell viability was measured by XTT assay. Data represent the mean±S.D.
# FIG. 41. […] MDA-MB-231 cells were pretreated with Akt inhibitor (0.5 μM) for 4 h followed by treatment with various concentrations of DRA11, DRA9, and DRA9S for 72 h. At the end of incubation, cell viability was measured by XTT assay. Data represent the mean±S.D.
# as §1
# [2] = test system: prostate cancer LNCaP cells xenografted; test: LNCaP xenograft tumor growth; format: in vivo, Balb c nude mice; conditions: 40 mg/kg iv, 5 days per week
# Procedure: FIG. 28. […] LNCaP cells (2×10^6 cells as a 50% suspension in Matrigel, Becton Dickinson, Bedford, Mass., in a final volume of 0.1 ml) were injected subcutaneously in the right flank of Balb c nude mice. After tumor formation (about 100 mm^3), nude mice were treated (iv) with vehicle control (0.1 ml normal saline), and DRA9S (40 mg/kg, 0.1 ml volume) everyday 5 days per week throughout the duration of the experiment. Tumor volume was calculated using the equation: (volume=length×width×depth×0.5236 mm^3). Data represent mean±S.E.
# LNCaP cells (2×10^6 cells as a 50% suspension in Matrigel, Becton Dickinson, Bedford, Mass., in a final volume of 0.1 ml) were injected subcutaneously in the right flank of Balb c nude mice. After tumor formation (about 100 mm^3), nude mice were treated (iv) with vehicle control (0.1 ml normal saline), and DRA9S (40 mg/kg, 0.1 ml volume) everyday 5 days per week throughout the duration of the experiment. Tumor volume was calculated using the equation: (volume=length×width×depth×0.5236 mm^3). See, for example, FIG. 28. Data represent mean ±S.E.
# [3] = test system: mesothelioma MS1 cell line; test: XTT cell viability, mesothelioma MS1; format: cell-based; conditions: then DRA 72 h; for effect of NFκB inhibitor MG132 on the inhibitory effect on cell viability: MG132 2.5 μM 4 h
# Procedure: FIG. 44. […] Mesothelioma MS1 cells were treated with NFκB inhibitor MG132 (2.5 μM) for 4 h followed by treatment with various concentrations of DRA11, DRA9, and DRA9S for 72 h. At the end of incubation, cell viability was measured by XTT assay. Data represent the mean±S.D.
# (§2) FIG. 54. […] MS1 cells were pretreated with either control peptide (10 μM) or pan caspase inhibitor (z-VAD-fmk, 25 μM) for 2 h, followed by treatment with various doses of DRA11, DRA9 and DRA9S for 72 h. At the end of incubation, cell viability was measured by XTT assay. Data represent the mean±S.D.
# as §1
# [4] = test system: human normal mammary epithelial cells (HMECs); test: XTT cell viability, normal mammary epithelial cells; format: cell-based; conditions: 72 h
# Procedure: FIG. 21. DRAs have no effect on cell viability in human normal mammary epithelial cells (HMECs), HMECs were treated with DRA11, DRA9 and DRA9S for 72 h. At the end of incubation period, cell viability was measured by XTT assay. Data represent the mean±S.D. Control refers to group treated with DMSO (0.01%).
# FIGS. 60 A, B & C. DRAs has no effect on cell viability of human normal mammary, prostate and lung epithelial cells. Human normal mammary (FIG. 60A), prostate (FIG. 60B) and lung (FIG. 60C) epithelial cells were treated with DRA11 (0-25 μM) for 72 h, and cell viability was measured by XTT assay.
# XTT Assay. Cells (1×10^4 cells per well) were seeded in 96-well plates (flat bottom), and treated with death receptor agonists/activators/small molecules in the presence or absence of TNF-related apoptosis inducing ligand (TRAIL). Plates were incubated for various time points at 37° C. and 5% CO2. […] The spectrophotometric absorbance of the sample was measured using a microtitre plate (ELISA) reader. The wavelength to measure absorbance of the formazan product was 450 nm, and the reference wavelength was 650 nm.
# HMECs were treated with DRA11, DRA9 and DRA9S for 72 h. At the end of incubation period, cell viability was measured by XTT assay. […]
# [5] = test system: mesothelioma M33K cell line; test: XTT cell viability, mesothelioma M33K; format: cell-based; conditions: z-VAD-fmk 25 μM 2 h pretreatment, then DRA 72 h
# Procedure: as §2, with “53.” for “54.”, “M33K” for “MS1”, “(z-VAD-fink,” for “(z-VAD-fmk,”
# as §1
Compound,effect on cell viability of normal human hepatocytes (normal human hepatocytes),effect of Akt inhibitor on the inhibitory effect on cell viability [1],effect of PI-3 kinase inhibitor LY294002 on the inhibitory effect on cell viability [1],effect of NFκB inhibitor MG132 on the inhibitory effect on cell viability [1],growth of xenografted LNCaP tumors (tumor volume) [2],effect of NFκB inhibitor MG132 on the inhibitory effect on cell viability [3],effect on cell viability in HMECs [4],effect of pan caspase inhibitor (z-VAD-fmk) on the inhibitory effect on cell viability [5],effect of pan caspase inhibitor (z-VAD-fmk) on the inhibitory effect on cell viability ([3]; z-VAD-fmk 25 μM 2 h pretreatment)
CCOc1cc(Br)c(Br)c(/C=N/c2cccc(C(=O)O)c2C)c1O [DRA9S],no effect,enhances the inhibitory effects,enhances the inhibitory effects,enhances the inhibitory effects,inhibits growth,enhances the inhibitory effects,no effect,,
CCOc1cc(Br)c(Br)c(/C=N/c2cccc(C(=O)O)c2)c1O [DRA9],no effect,enhances the inhibitory effects,enhances the inhibitory effects,enhances the inhibitory effects,,enhances the inhibitory effects,no effect,blocks the inhibitory effects,blocks the inhibitory effects
